Measured values taken from PubChem BioAssay AID1117332.
Active and inactive are the calls of the source. How the calls were made is not given here.

System: HCT116 viability, CellTiter-Glo ATP luminescence
Assay: cytotoxicity toward HCT116 cells – cell-based, CellTiter-Glo luminescence, IC50, dose response (AID 1117332)

Compound | IC50
CC(=O)[O][Hg][c]1ccccc1 | 2800 nM
Cc1ccc([N+](=O)[O-])[c]2c1[O][Hg]2 | 2830 nM
O=C1[O][Bi][O]c2ccccc21 | > 20000 nM (inactive)
CCCCCCCCCCCCCC[N+](C)(C)C | 2290 nM
OCCN1CCN(CC/C=C2/c3ccccc3Sc3ccc(C(F)(F)F)cc32)CC1 | 4580 nM
O=C(O)C1(C(=O)O)CCC1.[NH2-].[NH2-].[Pt+2] | > 20000 nM (inactive)
